Values of other authors as cited in patent US20230000905A1, “IODINE AND POLYOL COMPOSITION, METHOD, AND USE” (priority 2020, published 2023).

System: rhinovirus
Settings: molecular iodine at the tested concentrations

For `II` [molecular iodine], the “time to inactivate rhinovirus” value is listed as 30 s.
